Data from ChEMBL document CHEMBL2069183, “Inhibitor scaffold for the histone lysine demethylase KDM4C (JMJD2C)” (Bioorg Med Chem Lett, 2012).
The source made the active and inactive calls. No cut-off for these calls is given here.

Assays:
[1] = target: T1, Lysine-specific demethylase 4C (Homo sapiens, UniProt Q9H3R0); assay: Inhibition of KDM4C catalytic core-mediated demethylation of ARK(Me)3STGGK after 30 mins by FDH-coupled assay
T1 sequence (Q9H3R0 whole entry): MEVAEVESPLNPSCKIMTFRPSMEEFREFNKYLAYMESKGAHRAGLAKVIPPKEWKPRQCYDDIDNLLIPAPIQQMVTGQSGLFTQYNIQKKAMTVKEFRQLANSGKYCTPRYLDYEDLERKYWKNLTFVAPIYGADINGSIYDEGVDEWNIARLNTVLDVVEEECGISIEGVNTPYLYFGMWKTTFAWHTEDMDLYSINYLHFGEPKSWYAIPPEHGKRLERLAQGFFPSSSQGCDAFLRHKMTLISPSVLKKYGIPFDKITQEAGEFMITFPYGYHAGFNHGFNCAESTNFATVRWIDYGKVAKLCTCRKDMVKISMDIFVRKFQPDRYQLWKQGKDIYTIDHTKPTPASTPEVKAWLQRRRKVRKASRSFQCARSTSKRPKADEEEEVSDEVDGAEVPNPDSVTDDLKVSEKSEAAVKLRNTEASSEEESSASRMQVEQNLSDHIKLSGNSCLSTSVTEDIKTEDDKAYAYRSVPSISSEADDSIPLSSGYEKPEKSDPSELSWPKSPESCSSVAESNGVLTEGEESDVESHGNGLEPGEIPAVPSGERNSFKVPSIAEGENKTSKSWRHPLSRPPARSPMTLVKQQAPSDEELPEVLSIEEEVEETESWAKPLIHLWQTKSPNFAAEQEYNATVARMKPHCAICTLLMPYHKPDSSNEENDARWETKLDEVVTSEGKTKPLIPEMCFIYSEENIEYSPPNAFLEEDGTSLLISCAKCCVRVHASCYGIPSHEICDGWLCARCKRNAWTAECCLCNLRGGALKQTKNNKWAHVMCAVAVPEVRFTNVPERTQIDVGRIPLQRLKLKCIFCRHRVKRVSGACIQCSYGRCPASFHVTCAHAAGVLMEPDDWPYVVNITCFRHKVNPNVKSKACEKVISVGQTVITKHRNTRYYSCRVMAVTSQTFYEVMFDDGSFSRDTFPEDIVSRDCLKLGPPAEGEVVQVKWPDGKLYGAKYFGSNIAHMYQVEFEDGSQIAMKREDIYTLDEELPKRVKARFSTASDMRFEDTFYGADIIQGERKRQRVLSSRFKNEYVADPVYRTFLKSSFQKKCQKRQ

[2] = target: Alcohol dehydrogenase class-3 (Homo sapiens) (UniProt P11766); assay: Inhibition of FDH using formalin as substrate at 0.01 to 500 uM after 30 mins by fluorimetry
[3] = target: T2, Lysine-specific demethylase 4C (Homo sapiens) (UniProt Q9H3R0); details: 500 uM
T2 sequence (whole entry): T1 sequence (Q9H3R0 whole entry)
Description: Inhibition of KDM4C catalytic core-mediated demethylation of ARK(Me)3STGGK at 500 uM after 30 mins by FDH-coupled assay in presence of increasing concentration of Fe(II) ions

[4] = target: Lysine-specific demethylase 6A (Homo sapiens, UniProt O15550); assay: Inhibition of KDM6A
Sequence of Lysine-specific demethylase 6A (O15550 whole entry): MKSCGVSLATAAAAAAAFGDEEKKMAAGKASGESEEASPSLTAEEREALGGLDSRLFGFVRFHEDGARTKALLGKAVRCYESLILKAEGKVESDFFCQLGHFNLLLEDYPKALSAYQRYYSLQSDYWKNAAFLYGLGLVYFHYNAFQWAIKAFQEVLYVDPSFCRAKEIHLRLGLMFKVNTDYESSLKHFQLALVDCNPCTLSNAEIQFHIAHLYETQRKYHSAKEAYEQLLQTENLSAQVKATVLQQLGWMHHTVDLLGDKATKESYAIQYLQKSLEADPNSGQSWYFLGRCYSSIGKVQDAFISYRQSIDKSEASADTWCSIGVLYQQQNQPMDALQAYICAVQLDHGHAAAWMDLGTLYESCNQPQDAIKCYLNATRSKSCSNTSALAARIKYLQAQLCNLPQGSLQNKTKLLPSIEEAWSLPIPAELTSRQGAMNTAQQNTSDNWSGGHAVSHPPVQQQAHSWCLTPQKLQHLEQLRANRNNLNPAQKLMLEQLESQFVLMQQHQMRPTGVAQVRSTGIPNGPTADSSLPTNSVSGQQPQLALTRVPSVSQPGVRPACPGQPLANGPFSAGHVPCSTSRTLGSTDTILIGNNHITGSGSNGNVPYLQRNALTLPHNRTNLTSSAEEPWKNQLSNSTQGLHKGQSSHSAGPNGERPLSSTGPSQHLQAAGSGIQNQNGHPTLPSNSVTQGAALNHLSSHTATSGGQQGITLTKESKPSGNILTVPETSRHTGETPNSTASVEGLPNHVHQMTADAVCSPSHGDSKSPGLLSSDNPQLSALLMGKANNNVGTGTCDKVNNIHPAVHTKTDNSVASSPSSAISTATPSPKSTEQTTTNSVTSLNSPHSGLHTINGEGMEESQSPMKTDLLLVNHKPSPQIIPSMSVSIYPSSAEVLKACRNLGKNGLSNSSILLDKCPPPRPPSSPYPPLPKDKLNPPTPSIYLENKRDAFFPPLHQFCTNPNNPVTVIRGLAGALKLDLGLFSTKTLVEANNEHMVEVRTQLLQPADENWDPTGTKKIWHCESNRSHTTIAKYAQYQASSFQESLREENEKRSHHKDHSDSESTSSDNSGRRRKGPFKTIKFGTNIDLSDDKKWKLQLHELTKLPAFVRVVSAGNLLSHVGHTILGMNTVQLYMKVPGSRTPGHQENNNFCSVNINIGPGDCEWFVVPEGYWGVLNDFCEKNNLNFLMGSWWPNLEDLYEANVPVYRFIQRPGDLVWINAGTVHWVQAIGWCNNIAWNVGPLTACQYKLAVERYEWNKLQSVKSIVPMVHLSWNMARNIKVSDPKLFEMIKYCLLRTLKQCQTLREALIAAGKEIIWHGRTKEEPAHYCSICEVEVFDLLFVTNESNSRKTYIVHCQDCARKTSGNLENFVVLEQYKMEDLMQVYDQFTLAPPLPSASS

Sequence of Alcohol dehydrogenase class-3 (Homo sapiens) (P11766 2-374 limits assumed): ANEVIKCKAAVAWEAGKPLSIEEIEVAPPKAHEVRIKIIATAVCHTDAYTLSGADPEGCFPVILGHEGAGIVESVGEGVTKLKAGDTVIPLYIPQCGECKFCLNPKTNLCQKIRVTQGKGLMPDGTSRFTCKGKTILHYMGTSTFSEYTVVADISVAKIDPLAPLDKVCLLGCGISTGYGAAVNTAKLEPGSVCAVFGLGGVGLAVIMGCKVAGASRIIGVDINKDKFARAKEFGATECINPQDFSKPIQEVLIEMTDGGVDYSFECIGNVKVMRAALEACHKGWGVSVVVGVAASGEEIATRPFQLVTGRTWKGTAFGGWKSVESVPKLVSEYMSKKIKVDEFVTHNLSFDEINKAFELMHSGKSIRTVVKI

Row | Structure (SMILES) | IC50 [1] | Ki [1] | inhibition [2] | inhibition [3] | IC50 [4]
1 | COc1ccc(Cn2nnc(C(=O)O)c2N)cc1 | > 200 µM | > 200 µM |  |  | 
2 | N#Cc1cccnc1Nc1cccnc1Cl | > 200 µM | > 200 µM |  |  | 
3 | Cn1cc(C(=O)O)nn1 | > 200 µM | > 200 µM |  |  | 
4 | Cn1cc(Cl)nc1Cl | > 200 µM | > 200 µM |  |  | 
5 | [O-][n+]1nn(-c2ccccc2)c(Cl)c1Br | > 200 µM | > 200 µM |  |  | 
6 | COC(=O)c1n[nH]c(C(=O)OC)c1O | 30 µM | 51 µM | inactive | inactive | 
7 | CN1CN(Cc2ccccc2)C=C1S | > 200 µM | > 200 µM |  |  | 
8 | [O-][n+]1nn(-c2ccccc2)c(Br)c1Cl | > 200 µM | > 200 µM |  |  | 
9 | O=C(O)c1ccnc(C(=O)O)c1 |  |  |  |  | 177 µM
10 | Cc1c(O)c(C=O)nn1-c1ccccc1 | 100 µM | 142 µM | inactive |  | 
11 | [O-][n+]1nn(Cc2ccccc2)c(C(=S)Nc2ccccc2)c1Cl | > 200 µM | > 200 µM |  |  | 
12 | O=C(O)c1cc(C(=O)O)[nH]n1 | > 200 µM | > 200 µM |  |  | 
13 | [O-][n+]1nn(-c2ccccc2)c(Br)c1Br | > 200 µM | > 200 µM |  |  | 
14 | [O-][n+]1nn(-c2ccccc2)c(Cl)c1Cl | > 200 µM | > 200 µM |  |  | 
15 | Oc1csc(O)n1 | > 200 µM | > 200 µM |  |  | 
16 | Cn1c(Cl)cnc1CO | > 200 µM | > 200 µM |  |  | 
17 | O=[N+]([O-])c1cnn(-c2ccccc2)c1 | > 200 µM | > 200 µM |  |  | 
18 | Cc1nn(C)n(C)c1=S | > 200 µM | > 200 µM |  |  | 
19 | [O-][n+]1nn(Cc2ccccc2)cc1Br | > 200 µM | > 200 µM |  |  | 
20 | Nc1cn(-c2ccccc2)nn1 | > 200 µM | > 200 µM |  |  | 
21 | COc1c(-c2ccccc2)nnn1C | > 200 µM | > 200 µM |  |  | 
22 | CSc1c(Cl)[n+]([O-])nn1-c1ccccc1 | > 200 µM | > 200 µM |  |  | 
23 | CNC(=O)c1nnn(C)c1O | > 200 µM | > 200 µM |  |  | 
24 | Cc1c(O)c(C(=O)c2ccccc2)nn1-c1ccccc1 | > 200 µM | > 200 µM |  |  | 
25 | OCC1C(Cl)=NNN1c1ccccc1 (stereo unspecified) | > 200 µM | > 200 µM |  |  | 
26 | O=C(O)c1cnnn1-c1ccccc1 | > 200 µM | > 200 µM |  |  | 

Row | Structure (SMILES) | IC50 [1] | Ki [1] | inhibition [2] | inhibition [3] | IC50 [4]
27 | COn1nnc(C(=O)O)c1C(=O)O | > 200 µM | > 200 µM |  |  | 
28 | CN1C=C(Br)N(O)N1 | > 200 µM | > 200 µM |  |  | 
29 | O=C1CN=C(c2ccccc2)c2cc([N+](=O)[O-])ccc2N1 [NITRAZEPAM] | > 200 µM | > 200 µM |  |  | 
30 | CCOC(=O)c1nnn(-c2ccccc2)c1NC(C)=O | > 200 µM | > 200 µM |  |  | 
31 | COc1sc(-c2ccccc2)nc1Cl | > 200 µM | > 200 µM |  |  | 
32 | O=C(O)c1cc[nH]n1 | > 200 µM | > 200 µM |  |  | 
33 | Brc1cn(Cc2ccccc2)nn1 | > 200 µM | > 200 µM |  |  | 
34 | Cn1cc(N)nn1 | > 200 µM | > 200 µM |  |  | 
35 | COC(=O)c1n[nH]n(Cc2ccccc2)c1=O | > 200 µM | > 200 µM |  |  | 
36 | C[n+]1ccnn1-c1ccccc1 | > 200 µM | > 200 µM |  |  | 
37 | CCOC(=O)c1[nH]nnc1C | > 200 µM | > 200 µM |  |  | 
38 | [O-][n+]1nn(Cc2ccccc2)cc1Cl | > 200 µM | > 200 µM |  |  | 
39 | Cn1cc(Br)nc1-c1ccccc1 | > 200 µM | > 200 µM |  |  | 
40 | Clc1csc(-c2ccccc2)n1 | > 200 µM | > 200 µM |  |  | 
41 | [O-][n+]1nn(-c2ccccc2)c(CO)c1Cl | > 200 µM | > 200 µM |  |  | 
42 | Cc1c(Cl)[n+]([O-])nn1-c1ccccc1 | > 200 µM | > 200 µM |  |  | 
43 | [O-][n+]1nn(Cc2ccccc2)c(Br)c1Br | > 200 µM | > 200 µM |  |  | 
44 | O=C(O)c1cn(-c2ccccc2)nn1 | > 200 µM | > 200 µM |  |  | 
45 | Cc1ccc(-n2nc(C(=O)c3ccccc3)c(O)c2C)cc1 | > 200 µM | > 200 µM |  |  | 
46 | O=C(O)c1cc([N+](=O)[O-])[nH]n1 | > 200 µM | > 200 µM |  |  | 
47 | OB(O)c1cc[nH]n1 | > 200 µM | > 200 µM |  |  | 
48 | c1cn[nH]c1 [PYRAZOLE] | > 200 µM | > 200 µM |  |  | 
49 | C[n+]1nn(Cc2ccccc2)cc1Cl | > 200 µM | > 200 µM |  |  | 
50 | Cc1ccc(Cn2cc(C(=O)O)nn2)cc1 | > 200 µM | > 200 µM |  |  | 
51 | O=C(O)c1cnn(-c2ccccc2)n1 | > 200 µM | > 200 µM |  |  | 
52 | Cc1c(C(=O)O)cnn1C | > 200 µM | > 200 µM |  |  | 
